Reference: patent publication US8017791B2, “Tri-substituted 2-benzhydryl-5-benzylamino-tetrahydro-pyran-4-ol and 6-benzhydryl-4-benzylamino-tetrahydro-pyran-3-ol analogues, and novel, 3,6-disubstituted pyran derivatives” (Wayne State University, priority 2003, dated 2011)
Counter-ions that a name gives are not always drawn.

Assays:
[1] = target: T1, DAT (Rattus norvegicus, UniProt P23977); assay: Inhibition of [3H]DA uptake by DAT into rat striatal synaptosomes; type: biochemical; conditions: for IC50: read-out: DAT uptake, IC50 [3H]DA; for [3H]DA uptake/DAT binding: Table 3, ratio of IC50 values
T1 construct: rat striatum was the source for DAT, and cerebral cortex for SERT and NET; from tissue; P2 synaptosomal fraction for uptake
T1 sequence (P23977 whole entry): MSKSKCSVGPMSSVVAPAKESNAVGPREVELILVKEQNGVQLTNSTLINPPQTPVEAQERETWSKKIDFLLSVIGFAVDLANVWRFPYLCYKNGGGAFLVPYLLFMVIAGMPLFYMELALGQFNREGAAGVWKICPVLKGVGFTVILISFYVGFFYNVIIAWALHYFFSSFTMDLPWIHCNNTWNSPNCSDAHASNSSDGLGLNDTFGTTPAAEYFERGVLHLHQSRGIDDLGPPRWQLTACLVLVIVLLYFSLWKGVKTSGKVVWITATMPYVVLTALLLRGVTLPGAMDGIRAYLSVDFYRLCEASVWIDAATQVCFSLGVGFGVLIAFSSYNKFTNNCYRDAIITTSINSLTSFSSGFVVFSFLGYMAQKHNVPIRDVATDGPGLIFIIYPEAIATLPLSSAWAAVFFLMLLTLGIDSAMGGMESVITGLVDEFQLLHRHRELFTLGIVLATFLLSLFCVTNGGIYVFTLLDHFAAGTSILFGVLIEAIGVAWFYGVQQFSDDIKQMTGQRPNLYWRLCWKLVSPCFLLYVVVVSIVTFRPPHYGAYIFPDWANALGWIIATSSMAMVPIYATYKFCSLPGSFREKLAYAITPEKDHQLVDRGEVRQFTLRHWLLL
Procedure: (§1) Biology. […] Briefly, rat striatum was the source for DAT, and cerebral cortex for SERT and NET. […] Test compounds were dissolved in dimethyl sulfoxide (DMSO) and diluted out in 10% (v/v) DMSO. […] At least five triplicate concentrations of each test compound were studied, spaced evenly around the IC50 value. For DAT uptake assays, uptake of 50 nM [^3H]DA into rat striatal synaptosomes was measured exactly as described by us previously. Briefly, rat striatal P2 membrane fractions were incubated with test compounds for 8 min followed by the additional presence of [^3H]DA for 4 min at 25?. […] Construction of inhibition curves and dissolvement of test compounds were as described above.

[2] = target: T1, DAT; assay: Inhibition of [3H]WIN 35,428 binding to DAT
Procedure: as §1

[3] = target: T2, SERT (Rattus norvegicus, UniProt P31652); assay: SERT uptake inhibition, [3H]5-HT; type: biochemical; conditions: in vitro data, Table 4, SERT and NET
T2 construct: rat striatum was the source for DAT, and cerebral cortex for SERT and NET; from tissue; host or cells: rat cerebral cortex
T2 sequence (P31652 whole entry): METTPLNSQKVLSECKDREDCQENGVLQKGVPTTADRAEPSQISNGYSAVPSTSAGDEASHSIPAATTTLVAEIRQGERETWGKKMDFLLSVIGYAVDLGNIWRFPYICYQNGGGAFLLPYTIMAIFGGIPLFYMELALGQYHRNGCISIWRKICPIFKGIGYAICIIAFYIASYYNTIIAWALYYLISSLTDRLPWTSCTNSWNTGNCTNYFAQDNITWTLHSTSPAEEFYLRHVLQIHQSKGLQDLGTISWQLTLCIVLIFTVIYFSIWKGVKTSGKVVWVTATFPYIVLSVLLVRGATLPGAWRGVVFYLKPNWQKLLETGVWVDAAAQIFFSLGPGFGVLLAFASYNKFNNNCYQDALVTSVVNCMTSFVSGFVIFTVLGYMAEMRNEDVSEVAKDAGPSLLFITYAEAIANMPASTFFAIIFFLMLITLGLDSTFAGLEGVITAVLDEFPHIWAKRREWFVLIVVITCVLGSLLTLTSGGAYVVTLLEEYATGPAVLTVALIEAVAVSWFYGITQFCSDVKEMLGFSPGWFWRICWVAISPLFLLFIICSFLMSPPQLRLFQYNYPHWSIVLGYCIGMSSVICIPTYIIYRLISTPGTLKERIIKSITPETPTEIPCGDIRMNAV

SMILES | melting point [°C] | also measured
COc1ccc(CN[C@H]2CC[C@@H](C(c3ccccc3)c3ccccc3)OC2)cc1 (relative stereo) [Compound 16e, Cis-(6-benzhydryl-tetrahydropyran-3-yl)-(4-methoxy-benzyl)-amine] | – | IC50 ([1]; Table 2, average ± SEM): 59.5 ± 11.6 nM; [3H]DA uptake/DAT binding [1]: 0.71; IC50 ([2]; read-out: IC50 at the DAT): 84 nM
N[C@H]1CC[C@@H](C(c2ccccc2)c2ccccc2)OC1 (relative stereo) [Compound 15, Cis-(6-benzhydryl-tetrahydropyran-3-yl)-amine] | – | IC50 ([1]; Table 2, average ± SEM): 251 ± 31 nM; [3H]DA uptake/DAT binding [1]: 0.32; activity at DAT, in words [2]: little or no activity at the DAT; IC50 ([2]; Table 2, average ± SEM of three to eight experiments, read-out: DAT binding, IC50, [3H]Win 35,428): 777 ± 41 nM
c1ccc(C(c2ccccc2)C2CCC(NCc3cc4ccccc4[nH]3)CO2)cc1 (stereo not drawn) (as salt: oxalate) [Compound 16g, Cis-(6-benzhydryl-tetrahydropyran-3-yl)-(2-indole-methyl)-amine] | 215 to 216 | –
O[C@@H]1C[C@@H](C(c2ccccc2)c2ccccc2)OC[C@H]1NCc1ccc(F)cc1 (as salt: oxalate) [(−)-29b, (2S,4R,5R)-2-benzhydryl-5-(4-fluoro-benzylamino)-tetrahydro-pyran-4-ol] | 222 to 223 | –
Oc1ccc(CN[C@H]2CC[C@@H](C(c3ccccc3)c3ccccc3)OC2)cc1 (as salt: oxalate) [(−)-37a, cis-(3S,6S)-(6-benzhydryl-tetrahydropyran-3-yl)-(4-hydroxy-benzyl)-amine] | 136 to 138 | –
O[C@@H]1C[C@@H](C(c2ccccc2)c2ccccc2)OC[C@H]1NCc1ccccc1 (as salt: oxalate) [(−)-29d, (2S,4R,5R)-2-benzhydryl-5-benzylamino-tetrahydro-pyran 4-ol] | 250 to 252 | –
O[C@H]1C[C@H](C(c2ccccc2)c2ccccc2)OC[C@@H]1NCc1ccc2[nH]ccc2c1 [(+)-32b, (2R,4S,5S)-2-benzhydryl-5-[(1H-indol-5-ylmethyl)-amino]-tetrahydropyran-4-ol] | – | IC50 ([1]; Table 4, rat brain): 247 ± 21 nM; IC50 ([2]; Table 4, rat brain, read-out: DAT binding, IC50, [3H]Win 35,428): 494 ± 96 nM
Brc1ccc(CN[C@H]2CC[C@@H](C(c3ccccc3)c3ccccc3)OC2)cc1 (relative stereo) (as salt: oxalate) [Compound 16l, Cis-(6-benzhydryl-tetrahydropyran-3-yl)-(4-bromo-benzyl)-amine] | 250 to 252 | –
Oc1ccc(CN[C@@H]2CC[C@H](C(c3ccccc3)c3ccccc3)OC2)cc1 (as salt: oxalate) [(+)-37a, cis-(3R,6R)-(6-benzhydryl-tetrahydropyran-3-yl)-(4-hydroxy-benzyl)-amine] | 136 to 138 | –
COc1ccc(CN[C@H]2CC[C@@H](C(c3ccccc3)c3ccccc3)OC2)cc1 (relative stereo) (as salt: oxalate) [Compound 16e, Cis-(6-benzhydryl-tetrahydropyran-3-yl)-(4-methoxy-benzyl)-amine] | 215 to 217 | –
O[C@@H]1C[C@@H](C(c2ccccc2)c2ccccc2)OC[C@H]1NCCc1ccc(F)cc1 (as salt: oxalate) [(−)-29c, (2S,4R,5R)-2-benzhydryl-5-[2-(4-fluoro-phenyl)-ethylamino]-tetrahydropyran-4-ol] | 205 to 207 | –
COc1ccc(CN[C@@H]2CO[C@H](C(c3ccccc3)c3ccccc3)C[C@H]2O)cc1 [(−)-29a, (2S,4R,5R)-2-benzhydryl-5-(4-methoxy-benzylamino)-tetrahydropyran-4-ol] | – | blockade of both SERT and NET (SNRI profile), in words [3]: potent blockers for both SERT and NET; blockade of both SERT and NET (SNRI profile), in words ([3]; listed as (−)29a): dual transport blockers
O[C@H]1C[C@H](C(c2ccccc2)c2ccccc2)OC[C@@H]1NCCc1ccc(F)cc1 (as salt: oxalate) [(+)-29c, (2R,4S,5S)-2-benzhydryl-5-[2-(4-fluoro-phenyl)-ethylamino]-tetrahydropyran-4-ol] | 203 to 205 | –
O=[N+]([O-])c1ccc(CN[C@H]2CC[C@@H](C(c3ccccc3)c3ccccc3)OC2)cc1 (relative stereo) (as salt: oxalate) [Compound 16d, Cis-(6-benzhydryl-tetrahydropyran-3-yl)-(4-nitro-benzyl)-amine] | 236 to 238 | –
c1ccc(CN[C@H]2CC[C@@H](C(c3ccccc3)c3ccccc3)OC2)cc1 (relative stereo) (as salt: oxalate) [Compound 16k, Cis-(6-benzhydryl-tetrahydropyran-3-yl)-benzyl-amine] | 208 to 210 | –
N[C@H]1CC[C@@H](C(c2ccccc2)c2ccccc2)OC1 (relative stereo) (as salt: HCl) [Compound 15, Cis-(6-benzhydryl-tetrahydropyran-3-yl)-amine] | 260 to 261 | –

SMILES | melting point [°C] | also measured
O[C@H]1C[C@H](C(c2ccccc2)c2ccccc2)OC[C@@H]1NCc1ccc(F)cc1 (as salt: oxalate) [(+)-29b, (2R,4S,5S)-2-benzhydryl-5-(4-fluoro-benzylamino)-tetrahydro-pyran-4-ol] | 223 to 225 | –
Fc1ccc(CN[C@H]2CC[C@@H](C(c3ccccc3)c3ccccc3)OC2)cc1F (relative stereo) (as salt: oxalate) [Compound 16j, Cis-(6-benzhydryl-tetrahydropyran-3-yl)-(3,4-difluoro-benzyl)-amine] | 234 to 235 | –
COc1ccc(CN[C@@H]2CO[C@H](C(c3ccccc3)c3ccccc3)C[C@H]2O)c(OC)c1 (as salt: oxalate) [(−)-29e, (2S,4R,5R)-2-benzhydryl-5-(2,4-dimethoxy-benzylamino)-tetrahydropyran-4-ol] | 208 to 210 | –
N#Cc1ccc(CN[C@H]2CC[C@@H](C(c3ccccc3)c3ccccc3)OC2)cc1 (relative stereo) (as salt: oxalate) [Compound 16c, Cis-(6-benzhydryl-tetrahydropyran-3-yl)-(4-cyano-benzyl)-amine] | 241 to 242 | –
Fc1ccc(CCN[C@H]2CC[C@@H](C(c3ccccc3)c3ccccc3)OC2)cc1 (relative stereo) (as salt: oxalate) [Compound 16p, Cis-(6-benzhydryl-tetrahydropyran-3-yl)-[2-(4-fluoro-phenyl)-ethyl]-amine] | 240 to 242 | –
COc1ccc(CN[C@@H]2CO[C@H](C(c3ccccc3)c3ccccc3)C[C@H]2O)cc1 (as salt: oxalate) [(−)-29a, (2S,4R,5R)-2-benzhydryl-5-(4-methoxy-benzylamino)-tetrahydropyran-4-ol] | 230 to 232 | –
COc1cc(CN[C@@H]2CO[C@H](C(c3ccccc3)c3ccccc3)C[C@H]2O)cc(OC)c1 (as salt: oxalate) [(−)-29f, (2S,4R,5R)-2-benzhydryl-5-(3,5-dimethoxy-benzylamino)-tetrahydropyran-4-ol] | 245 to 247 | –
Fc1ccc(CN[C@@H]2CCO[C@@H](C(c3ccccc3)c3ccccc3)C2)cc1 (relative stereo) (as salt: oxalate) [Compound 7b, trans-(2-benzhydryl-tetrahydropyran-4-yl)-(4-fluoro-benzyl)-amine] | 185 to 187 | –
c1ccc(C(c2ccccc2)C2CCC(NCc3c[nH]c4ccccc34)CO2)cc1 (stereo not drawn) (as salt: oxalate) [Compound 16f, Cis-(6-benzhydryl-tetrahydropyran-3-yl)-(3-indole-methyl)-amine] | 177 to 179 | –
Ic1ccc(CN[C@H]2CC[C@@H](C(c3ccccc3)c3ccccc3)OC2)cc1 (relative stereo) (as salt: oxalate) [Compound 16m, Cis-(6-benzhydryl-tetrahydropyran-3-yl)-(4-iodo-benzyl)-amine] | 243 to 244 | –
O[C@H]1C[C@H](C(c2ccccc2)c2ccccc2)OC[C@@H]1NCc1ccccc1 (as salt: oxalate) [(+)-29d, (2R,4S,5S)-2-benzhydryl-5-benzylamino-tetrahydro-pyran-4-ol] | 249 to 251 | –
Fc1ccc(CN[C@H]2CCO[C@@H](C(c3ccccc3)c3ccccc3)C2)cc1 (relative stereo) (as salt: oxalate) [Compound 7a, cis-(2-benzhydryl-tetrahydropyran 4-yl)-(4-fluorobenzyl)-amine] | 177 to 181 | –
COc1ccc(CN[C@@H]2C[C@@H](C(c3ccccc3)c3ccccc3)OC[C@@H]2O)cc1 (as salt: oxalate) [(−)-29g, (3R,4R,6S)-6-benzhydryl-4-(4-methoxy-benzylamino)-tetrahydro-pyran-3-ol] | 234 to 235 | –
COc1ccc(CN[C@H]2CO[C@@H](C(c3ccccc3)c3ccccc3)C[C@@H]2O)cc1 (as salt: oxalate) [(+)-29a, (2R,4S,5S)-2-benzhydryl-5-(4-methoxy-benzylamino)-tetrahydro-pyran-4-ol] | 230 to 232 | –
Clc1ccc(CN[C@H]2CC[C@@H](C(c3ccccc3)c3ccccc3)OC2)cc1Cl (relative stereo) (as salt: oxalate) [Compound 16i, Cis-(6-benzhydryl-tetrahydropyran-3-yl)-(3,4-dichloro-benzyl)-amine] | 251 to 252 | –
Fc1ccc(CN[C@H]2CC[C@@H](C(c3ccccc3)c3ccccc3)OC2)cc1 (relative stereo) (as salt: oxalate) [Compound 16b, Cis-(6-benzhydryl-tetrahydropyran-3-yl)-(4-fluoro-benzyl)-amine] | 229 to 230 | –
